Experimental data published in PubChem BioAssay (NCI).
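A five-concentration, 48-hour dose response in 96-well plates underlies each endpoint, interpolated linearly between surrounding concentrations. GI50 = concentration required for 50% inhibition of growth. TGI: concentration producing complete growth inhibition.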

Assays:
Assay in all cases: NCI tumour cell line growth inhibition, 48 h
CCRF-CEM leukemia = tested on: CCRF-CEM leukemia
A549 NSCLC = tested on: A549 NSCLC
SK-OV-3 ovarian = tested on: SK-OV-3 ovarian
A498 renal = tested on: A498 renal
NCI-H460 lung = tested on: NCI-H460 lung
HCC-2998 colon = tested on: HCC-2998 colon
SK-MEL-28 melanoma = tested on: SK-MEL-28 melanoma
TK-10 renal = tested on: TK-10 renal
MOLT-4 leukemia = tested on: MOLT-4 leukemia
EKVX NSCLC = tested on: EKVX NSCLC
RPMI-8226 leukemia = tested on: RPMI-8226 leukemia
HT29 colon = tested on: HT29 colon
U251 CNS = tested on: U251 CNS
MDA-MB-435 = tested on: MDA-MB-435
ACHN renal = tested on: ACHN renal
786-0 renal = tested on: 786-0 renal
UO-31 renal = tested on: UO-31 renal
MALME-3M melanoma = tested on: MALME-3M melanoma
SN12C renal = tested on: SN12C renal
SNB-19 CNS = tested on: SNB-19 CNS
RXF 393 renal = tested on: RXF 393 renal
OVCAR-5 ovarian = tested on: OVCAR-5 ovarian
XF 498 CNS = tested on: XF 498 CNS
NCI-H23 lung = tested on: NCI-H23 lung
PC-3 prostate = tested on: PC-3 prostate
HL-60(TB) leukemia = tested on: HL-60(TB) leukemia
SW-620 colon = tested on: SW-620 colon
OVCAR-8 ovarian = tested on: OVCAR-8 ovarian
NCI-H522 lung = tested on: NCI-H522 lung
CAKI-1 renal = tested on: CAKI-1 renal
SK-MEL-2 melanoma = tested on: SK-MEL-2 melanoma
SR leukemia = tested on: SR leukemia
SK-MEL-5 melanoma = tested on: SK-MEL-5 melanoma
MDA-MB-231 breast = tested on: MDA-MB-231 breast
HOP-62 NSCLC = tested on: HOP-62 NSCLC
MDA-N = tested on: MDA-N
OVCAR-4 ovarian = tested on: OVCAR-4 ovarian
DLD-1 colon = tested on: DLD-1 colon
SF-268 CNS = tested on: SF-268 CNS
MCF7 breast = tested on: MCF7 breast
M14 melanoma = tested on: M14 melanoma
HCT-116 colon = tested on: HCT-116 colon
UACC-257 melanoma = tested on: UACC-257 melanoma
DU-145 prostate = tested on: DU-145 prostate
BT-549 breast = tested on: BT-549 breast
DMS 273 small cell lung = tested on: DMS 273 small cell lung
HS 578T breast = tested on: HS 578T breast
COLO 205 colon = tested on: COLO 205 colon
LXFL 529 NSCLC = tested on: LXFL 529 NSCLC
IGROV1 ovarian = tested on: IGROV1 ovarian
SF-295 CNS = tested on: SF-295 CNS
UACC-62 melanoma = tested on: UACC-62 melanoma
K-562 leukemia = tested on: K-562 leukemia
KM12 colon = tested on: KM12 colon
DMS 114 small cell lung = tested on: DMS 114 small cell lung
SNB-78 CNS = tested on: SNB-78 CNS
NCI/ADR-RES ovarian = tested on: NCI/ADR-RES ovarian
OVCAR-3 ovarian = tested on: OVCAR-3 ovarian
HOP-92 NSCLC = tested on: HOP-92 NSCLC
M19-MEL melanoma = tested on: M19-MEL melanoma
SF-539 CNS = tested on: SF-539 CNS
NCI-H226 lung = tested on: NCI-H226 lung
LOX IMVI melanoma = tested on: LOX IMVI melanoma
T-47D breast = tested on: T-47D breast
SNB-75 CNS = tested on: SNB-75 CNS
RXF-631 renal = tested on: RXF-631 renal
HCT-15 colon = tested on: HCT-15 colon
KM20L2 colon = tested on: KM20L2 colon

O=P(O)(NCCCl)NCCCl
TGI (CCRF-CEM leukemia): > 100 µM
TGI (A549 NSCLC): > 100 µM
TGI (SK-OV-3 ovarian): > 100 µM
TGI (A498 renal): > 100 µM
GI50 (NCI-H460 lung): 4.03 µM
TGI (NCI-H460 lung): > 100 µM
TGI (HCC-2998 colon): > 100 µM
TGI (SK-MEL-28 melanoma): > 100 µM
GI50 (TK-10 renal): > 100 µM
TGI (TK-10 renal): > 100 µM
TGI (MOLT-4 leukemia): > 100 µM
GI50 (EKVX NSCLC): > 100 µM
TGI (EKVX NSCLC): > 100 µM
TGI (RPMI-8226 leukemia): > 100 µM
GI50 (HT29 colon): > 100 µM
TGI (HT29 colon): > 100 µM
GI50 (U251 CNS): > 100 µM
TGI (U251 CNS): > 100 µM
TGI (MDA-MB-435): > 100 µM
TGI (ACHN renal): > 100 µM
TGI (786-0 renal): > 100 µM
TGI (UO-31 renal): > 100 µM
TGI (MALME-3M melanoma): > 100 µM
TGI (SN12C renal): > 100 µM
GI50 (SNB-19 CNS): > 100 µM
TGI (SNB-19 CNS): > 100 µM
GI50 (RXF 393 renal): > 100 µM
TGI (RXF 393 renal): > 100 µM
GI50 (OVCAR-5 ovarian): > 100 µM
TGI (OVCAR-5 ovarian): > 100 µM
GI50 (XF 498 CNS): > 100 µM
TGI (XF 498 CNS): > 100 µM
TGI (NCI-H23 lung): > 100 µM
TGI (PC-3 prostate): > 100 µM
TGI (HL-60(TB) leukemia): > 100 µM
GI50 (SW-620 colon): > 100 µM
TGI (SW-620 colon): > 100 µM
GI50 (OVCAR-8 ovarian): > 100 µM
TGI (OVCAR-8 ovarian): > 100 µM
TGI (NCI-H522 lung): > 100 µM
TGI (CAKI-1 renal): > 100 µM
TGI (SK-MEL-2 melanoma): > 100 µM
GI50 (SR leukemia): 40.6 µM
TGI (SR leukemia): > 100 µM
GI50 (SK-MEL-5 melanoma): > 100 µM
TGI (SK-MEL-5 melanoma): > 100 µM
TGI (MDA-MB-231 breast): > 100 µM
TGI (HOP-62 NSCLC): > 100 µM
TGI (MDA-N): > 100 µM
TGI (OVCAR-4 ovarian): > 100 µM
GI50 (DLD-1 colon): > 100 µM
TGI (DLD-1 colon): > 100 µM
TGI (SF-268 CNS): > 100 µM
TGI (MCF7 breast): > 100 µM
GI50 (M14 melanoma): 5.78 µM
TGI (M14 melanoma): > 100 µM
TGI (HCT-116 colon): > 100 µM
GI50 (UACC-257 melanoma): > 100 µM
TGI (UACC-257 melanoma): > 100 µM
TGI (DU-145 prostate): > 100 µM
TGI (BT-549 breast): > 100 µM
TGI (DMS 273 small cell lung): > 100 µM
TGI (HS 578T breast): > 100 µM
TGI (COLO 205 colon): > 100 µM
GI50 (LXFL 529 NSCLC): > 100 µM
TGI (LXFL 529 NSCLC): > 100 µM
TGI (IGROV1 ovarian): > 100 µM
TGI (SF-295 CNS): > 100 µM
TGI (UACC-62 melanoma): > 100 µM
TGI (K-562 leukemia): > 100 µM
GI50 (KM12 colon): > 100 µM
TGI (KM12 colon): > 100 µM
GI50 (DMS 114 small cell lung): 99.1 µM
TGI (DMS 114 small cell lung): > 100 µM
GI50 (SNB-78 CNS): > 100 µM
TGI (SNB-78 CNS): > 100 µM
TGI (NCI/ADR-RES ovarian): > 100 µM
GI50 (OVCAR-3 ovarian): > 100 µM
TGI (OVCAR-3 ovarian): > 100 µM
TGI (HOP-92 NSCLC): > 100 µM
GI50 (M19-MEL melanoma): > 100 µM
TGI (M19-MEL melanoma): > 100 µM
TGI (SF-539 CNS): > 100 µM
TGI (NCI-H226 lung): > 100 µM
TGI (LOX IMVI melanoma): > 100 µM
TGI (T-47D breast): > 100 µM
GI50 (SNB-75 CNS): 7.07 µM
TGI (SNB-75 CNS): > 100 µM
TGI (RXF-631 renal): > 100 µM
GI50 (HCT-15 colon): > 100 µM
TGI (HCT-15 colon): > 100 µM

COc1ccc2cc1Oc1ccc(cc1)CC1c3cc4c(cc3CCN1C)Oc1c(OC)cc3c(c1O4)C(C2)N(C)CC3 (stereo not drawn)
TGI (CCRF-CEM leukemia): 6.69 µM
TGI (KM20L2 colon): 9.25 µM
TGI (A549 NSCLC): 21.4 µM
TGI (NCI-H460 lung): 3.6 µM
TGI (HCC-2998 colon): 9.86 µM
TGI (SK-MEL-28 melanoma): 2.91 µM
TGI (TK-10 renal): 31.3 µM
TGI (MOLT-4 leukemia): 4.73 µM
TGI (EKVX NSCLC): 24.2 µM
TGI (HT29 colon): 4.77 µM
TGI (U251 CNS): 4.47 µM
TGI (ACHN renal): 17.9 µM
TGI (786-0 renal): 23 µM
TGI (SN12C renal): 3.62 µM
TGI (SNB-19 CNS): 13.5 µM
TGI (RXF 393 renal): 7.93 µM
TGI (OVCAR-5 ovarian): 26.5 µM
TGI (XF 498 CNS): 3.41 µM
TGI (NCI-H23 lung): 18.2 µM
TGI (HL-60(TB) leukemia): 4.25 µM
TGI (SW-620 colon): 3.79 µM
TGI (OVCAR-8 ovarian): 5.45 µM
TGI (NCI-H522 lung): 4.67 µM
TGI (SK-MEL-2 melanoma): 6.53 µM
TGI (SR leukemia): 4.68 µM
TGI (SK-MEL-5 melanoma): 21.1 µM
TGI (HOP-62 NSCLC): 28 µM
TGI (OVCAR-4 ovarian): 3.03 µM
TGI (DLD-1 colon): 9.62 µM
TGI (SF-268 CNS): 13.1 µM
TGI (M14 melanoma): 3 µM
TGI (HCT-116 colon): 3.21 µM
TGI (DMS 273 small cell lung): 3.02 µM
TGI (COLO 205 colon): 2.83 µM
TGI (LXFL 529 NSCLC): 11 µM
TGI (SF-295 CNS): 3.81 µM
TGI (UACC-62 melanoma): 10.5 µM
TGI (K-562 leukemia): 6.02 µM
TGI (KM12 colon): 4.57 µM
TGI (SNB-78 CNS): 48 µM
TGI (OVCAR-3 ovarian): 19.5 µM
TGI (M19-MEL melanoma): 14.3 µM
TGI (SF-539 CNS): 3.9 µM
TGI (NCI-H226 lung): 10.7 µM
TGI (LOX IMVI melanoma): 2.81 µM
TGI (RXF-631 renal): 31.1 µM
TGI (HCT-15 colon): 5.82 µM
